{"source": "paper PMC3511402", "about": "“Structural and Biochemical Studies on ATP Binding and Hydrolysis by the Escherichia coli RNA Chaperone Hfq” (PLoS ONE, 2012)", "key": {"full length E. coli Hfq": {"molecular_target": "T1, full length E. coli Hfq (Escherichia coli, UniProt P0A6X3)", "T1 construct": "full length, no added His tag (native histidines); plasmid pUH5 in E. coli AM111F' (printed for the ATPase preparations); hexamer", "T1 sequence (P0A6X3 2-102)": "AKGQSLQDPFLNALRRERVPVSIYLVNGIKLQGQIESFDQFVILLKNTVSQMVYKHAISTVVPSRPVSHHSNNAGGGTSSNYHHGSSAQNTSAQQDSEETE", "assay": "EMSA competition with […]'-labelled poly(A)[…] RNA", "assay_type": "binding", "details": "5 nM poly(A)27, 40 nM Hfq hexamer, pH 7.5, 2 mM MgOAc, room temperature; distal site competition"}, "Hfq65": {"molecular_target": "T2, Hfq65 (Escherichia coli, UniProt P0A6X3)", "T2 construct": "gene hfq; C-terminally truncated, aa 1-65; plasmid pUHfq65 expressed in E. coli hfq- strain AM111F'; untagged; hexamer", "T2 sequence (P0A6X3 1-65)": "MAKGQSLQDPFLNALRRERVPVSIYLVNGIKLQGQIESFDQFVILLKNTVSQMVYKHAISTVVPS", "assay": "X-ray crystal structure, […] Å", "assay_type": "binding", "details": "distal-face R-sites, four of six sites occupied; ATP 1:1 per subunit; Hepes pH ~7.5"}}, "data": [{"smiles": "Nc1ncnc2c1ncn2[C@@H]1O[C@H](COP(=O)(O)OP(=O)(O)OP(=O)(O)O)[C@@H](O)[C@H]1O", "note": "[ATP]", "values": [{"measurement": "% RNA released at 10 mM ATP", "setting": "full length E. coli Hfq", "value": "~ 50%"}, {"measurement": "X-ray crystal structure, 2.15 Å", "setting": "Hfq65", "value": "electron density corresponding to the ATP molecules was observed in four out of six R-sites"}]}]}
